How the values were obtained:
Mcl-1/Bim = Mcl-1/Bim (Homo sapiens, UniProt Q07820); assay: ELISA, disruption of Mcl-1/Bim binding; conditions: for IC50: read-out: Mcl-1/Bim IC50, ELISA, average ± SEM, n ≥ 3; for fold more potent than 1 against Mcl-1/Bim: ELISA IC50 relative to (±)-marinopyrrole A (1)
[1] = test system: MDA-MB-468 breast cancer cells; assay type: cell-based, human; conditions: MDA-MB-468 cells; for decrease of Mcl-1 levels and induction of apoptosis (caspase 3 activation): 3 μM, western blot; for decrease of Mcl-1 levels and caspase 3 cleavage: concentrations as high as 10 μM (data not shown)
Bcl-xL/Bim = Bcl-xL/Bim (Homo sapiens, UniProt Q07817); assay: ELISA, disruption of Bcl-xL/Bim binding; conditions: for IC50: read-out: Bcl-xL/Bim IC50, ELISA, average ± SEM, n ≥ 3; for selectivity for Bcl-xL over Mcl-1: ratio of ELISA IC50 values; for fold more potent than 1 against Bcl-xL/Bim: ELISA IC50 relative to (±)-marinopyrrole A (1)
Bcl-xL/Bim, sequence (Q07817 whole entry): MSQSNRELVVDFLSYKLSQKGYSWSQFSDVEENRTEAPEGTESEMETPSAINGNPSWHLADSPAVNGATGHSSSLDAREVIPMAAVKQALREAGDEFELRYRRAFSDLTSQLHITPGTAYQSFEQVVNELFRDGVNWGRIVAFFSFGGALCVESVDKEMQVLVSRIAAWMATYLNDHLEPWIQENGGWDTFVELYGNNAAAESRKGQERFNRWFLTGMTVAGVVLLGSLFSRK

Mcl-1/Bim, sequence (Q07820 whole entry): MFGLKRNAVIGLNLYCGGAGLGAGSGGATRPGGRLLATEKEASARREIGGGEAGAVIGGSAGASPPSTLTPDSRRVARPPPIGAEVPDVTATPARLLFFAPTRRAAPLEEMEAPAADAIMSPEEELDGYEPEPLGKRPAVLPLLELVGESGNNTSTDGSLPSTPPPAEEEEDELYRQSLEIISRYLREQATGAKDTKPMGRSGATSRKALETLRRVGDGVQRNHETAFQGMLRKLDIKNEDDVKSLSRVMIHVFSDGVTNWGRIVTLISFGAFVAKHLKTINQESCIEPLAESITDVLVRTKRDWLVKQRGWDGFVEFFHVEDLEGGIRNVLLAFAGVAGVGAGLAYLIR

Compound | IC50 (Mcl-1/Bim) [µM] | decrease of Mcl-1 levels and induction of apoptosis (caspase 3 activation) [1] | further results
CCOC(=O)Cn1cc(-c2cc(O)c(C(=O)c3[nH]c(Cl)c(Cl)c3-n3c(C(=O)c4cc(Cl)c(-c5cn(CC(=O)OCC)nn5)cc4O)cc(Cl)c3Cl)cc2Cl)nn1 [compound 36, Diethyl 2,2′-(4,4′-((4,4′,5,5′-tetrachloro-1′H-1,3′-bipyrrole-2,2′-dicarbonyl)bis(2-chloro-5-hydroxy-4,1-phenylene))bis(1H-1,2,3-triazole-4,1-diyl))diacetate] | 7.8 ± 1.5 |  | 
CC(C)(C)OC(=O)Cn1cc(-c2cc(O)c(C(=O)c3[nH]c(Cl)c(Cl)c3-n3c(C(=O)c4cc(Cl)c(-c5cn(CC(=O)OC(C)(C)C)nn5)cc4O)cc(Cl)c3Cl)cc2Cl)nn1 [compound 37, Di-tert-butyl 2,2′-(4,4′-((4,4′,5,5′-tetrachloro-1′H-1,3′-bipyrrole-2,2′-dicarbonyl)bis(2-chloro-5-hydroxy-4,1-phenylene))bis(1H-1,2,3-triazole-4,1-diyl))diacetate] |  | little activity in intact cells | 
O=C(c1ccc(SCc2ccccc2)cc1O)c1[nH]c(Cl)c(Cl)c1-n1c(C(=O)c2ccc(SCc3ccccc3)cc2O)cc(Cl)c1Cl [compound 32] |  | little activity in intact cells | 
Cc1cc(O)c(C(=O)c2[nH]c(Cl)c(Cl)c2-n2c(C(=O)c3cc(Cl)c(C)cc3O)cc(Cl)c2Cl)cc1Cl [compound 24, (4,4′,5,5′-Tetrachloro-1′H-1,3′-bipyrrole-2,2′-diyl)bis((5-chloro-2-hydroxy-4-methylphenyl)methanone)] | 2.6 ± 0.6 |  | IC50 (Bcl-xL/Bim): 2.5 ± 0.4 µM
O=C(O)Cn1cc(-c2cc(O)c(C(=O)c3[nH]c(Cl)c(Cl)c3-n3c(C(=O)c4cc(Cl)c(-c5cn(CC(=O)O)nn5)cc4O)cc(Cl)c3Cl)cc2Cl)nn1 [compound 38, 2,2′-(4,4′-((4,4′,5,5′-Tetrachloro-1′H-1,3′-bipyrrole-2,2′-dicarbonyl)bis(2-chloro-5-hydroxy-4,1-phenylene))bis(1H-1,2,3-triazole-4,1-diyl))diacetic acid] | 5.2 ± 0.8 |  | decrease of Mcl-1 levels and caspase 3 cleavage [1]: inactive at decreasing Mcl-1 levels and at inducing caspase 3 cleavage
Cn1c(Cl)c(Cl)c(-n2c(C(=O)c3ccccc3O)cc(Cl)c2Cl)c1C(=O)c1ccccc1O [compound 54, (4,4′,5,5′-tetrachloro-1′-methyl-1′H-[1,3′-bipyrrole]-2,2′-diyl)bis((2-hydroxyphenyl)methanone)] |  |  | selectivity for Bcl-xL over Mcl-1 (Bcl-xL/Bim): selectivity for Bcl-xL/Bim over Mcl-/Bim
(4,4′,5,5′-Tetrachloro-1′H-1,3′-bipyrrole-2,2′-diyl)bis((2-hydroxy-4-(1-octyl-1H-1,2,3-triazol-5-yl)phenyl)methanone) [compound 42] | 0.6 ± 0.3 | little activity in intact cells | fold more potent than 1 against Mcl-1/Bim (Mcl-1/Bim): 15 fold; fold more potent than 1 against Bcl-xL/Bim (Bcl-xL/Bim): 33 fold; IC50 (Bcl-xL/Bim): 0.5 ± 0.1 µM
CCOC(=O)CSc1ccc(C(=O)c2[nH]c(Cl)c(Cl)c2-n2c(C(=O)c3ccc(SCC(=O)OCC)cc3O)cc(Cl)c2Cl)c(O)c1 [compound 31] |  | little activity in intact cells | 
CCc1ccc(C(=O)c2[nH]c(Cl)c(Cl)c2-n2c(C(=O)c3ccc(CC)cc3O)cc(Cl)c2Cl)c(O)c1 [compound 27, (4,4′,5,5′-Tetrachloro-1′H-1,3′-bipyrrole-2,2′-diyl)bis((4-ethyl-2-hydroxyphenyl)methanone)] | 2.1 ± 0.5 |  | IC50 (Bcl-xL/Bim): 3.9 ± 1.3 µM
C#Cc1ccc(C(=O)c2[nH]c(Cl)c(Cl)c2-n2c(C(=O)c3ccc(C#C)cc3O)cc(Cl)c2Cl)c(O)c1 [compound 25, (4,4′,5,5′-Tetrachloro-1′H-1,3′-bipyrrole-2,2′-diyl)bis((4-ethynyl-2-hydroxyphenyl)methanone)] | 3.9 ± 0.2 |  | IC50 (Bcl-xL/Bim): 5.6 ± 0.5 µM
COc1ccc(CSc2ccc(C(=O)c3[nH]c(Cl)c(Cl)c3-n3c(C(=O)c4ccc(SCc5ccc(OC)cc5)cc4O)cc(Cl)c3Cl)c(O)c2)cc1 [compound 33] |  | little activity in intact cells | 
O=C(c1ccccc1O)c1[nH]c(Cl)c(Cl)c1-n1c(C(=O)c2c(O)cccc2F)cc(Cl)c1Cl [compound 52] |  | not active in intact cells | 
O=C(c1ccc(OS(=O)(=O)C(F)(F)F)cc1O)c1[nH]c(Cl)c(Cl)c1-n1c(C(=O)c2ccccc2O)cc(Cl)c1Cl [compound 28] |  |  | fold more potent than 1 against Mcl-1/Bim (Mcl-1/Bim): nine; fold more potent than 1 against Bcl-xL/Bim (Bcl-xL/Bim): eight
O=C(c1ccccc1O)c1[nH]c(Cl)c(Cl)c1-n1c(C(=O)c2cc(Cl)ccc2O)cc(Cl)c1Cl [compound 48] |  | not active in intact cells | 
O=C(c1ccc(-c2cn(-c3ccccc3)nn2)cc1O)c1[nH]c(Cl)c(Cl)c1-n1c(C(=O)c2ccc(-c3cn(-c4ccccc4)nn3)cc2O)cc(Cl)c1Cl [compound 40] |  | little activity in intact cells | selectivity for Bcl-xL over Mcl-1 (Bcl-xL/Bim): 2 fold
O=C(c1ccc(O)cc1O)c1[nH]c(Cl)c(Cl)c1-n1c(C(=O)c2ccc(O)cc2O)cc(Cl)c1Cl [compound 29] |  |  | decrease of Mcl-1 levels and caspase 3 cleavage [1]: inactive at decreasing Mcl-1 levels and at inducing caspase 3 cleavage
CCOC(=O)Cn1cc(-c2ccc(C(=O)c3[nH]c(Cl)c(Cl)c3-n3c(C(=O)c4ccc(-c5cn(CC(=O)OCC)nn5)cc4O)cc(Cl)c3Cl)c(O)c2)nn1 [compound 43, Diethyl 2,2′-(4,4′-((4,4′,5,5′-tetrachloro-1′H-1,3′-bipyrrole-2,2′-dicarbonyl)bis(3-hydroxy-4,1-phenylene))bis(1H-1,2,3-triazole-4,1-diyl))diacetate] | 18.4 ± 0.3 |  | 
O=C(c1cc(Cl)c(O)cc1O)c1[nH]c(Cl)c(Cl)c1-n1c(C(=O)c2cc(Cl)c(O)cc2O)cc(Cl)c1Cl [compound 30] |  |  | decrease of Mcl-1 levels and caspase 3 cleavage [1]: inactive at decreasing Mcl-1 levels and at inducing caspase 3 cleavage
O=C(O)Cn1cc(-c2ccc(C(=O)c3[nH]c(Cl)c(Cl)c3-n3c(C(=O)c4ccc(-c5cn(CC(=O)O)nn5)cc4O)cc(Cl)c3Cl)c(O)c2)nn1 [compound 45, 2,2′-(4,4′-((4,4′,5,5′-Tetrachloro-1′H-1,3′-bipyrrole-2,2′-dicarbonyl)bis(3-hydroxy-4,1-phenylene))bis(1H-1,2,3-triazole-4,1-diyl))diacetic acid] | 16.5 ± 1.9 |  | 

— PMC4445146 (European journal of medicinal chemistry, 2014)
